In data set [1] the test system is Human peripheral blood mononuclear (PBMC) cells. Briefly: LPS-stimulated cytokine release from PBMC. Format: cell-based. As to conditions: 16 h.
For data set [2], the system named is C57BL6 mice given TPA on ears. In words: TPA-induced ear edema model. Format: in vivo, mouse. The note with it: topical 8, 40, 200 ug/ear, 18 h after TPA, versus vehicle.
For data set [3], the system named is Murine lung epithelial (MLE) cells. In words: Immunoblotting of Fbxl2, TRAFs and Fbxl2 substrates in MLE cells.
For a further data set, the system named is TRAF 1–6 in MLE cells. In words: TRAF protein half-life. As to conditions: different concentrations, 16 h.
In data set [4] the target is T1, COX-2 (Mus musculus, UniProt Q05769).
T1 sequence (Q05769 18-604): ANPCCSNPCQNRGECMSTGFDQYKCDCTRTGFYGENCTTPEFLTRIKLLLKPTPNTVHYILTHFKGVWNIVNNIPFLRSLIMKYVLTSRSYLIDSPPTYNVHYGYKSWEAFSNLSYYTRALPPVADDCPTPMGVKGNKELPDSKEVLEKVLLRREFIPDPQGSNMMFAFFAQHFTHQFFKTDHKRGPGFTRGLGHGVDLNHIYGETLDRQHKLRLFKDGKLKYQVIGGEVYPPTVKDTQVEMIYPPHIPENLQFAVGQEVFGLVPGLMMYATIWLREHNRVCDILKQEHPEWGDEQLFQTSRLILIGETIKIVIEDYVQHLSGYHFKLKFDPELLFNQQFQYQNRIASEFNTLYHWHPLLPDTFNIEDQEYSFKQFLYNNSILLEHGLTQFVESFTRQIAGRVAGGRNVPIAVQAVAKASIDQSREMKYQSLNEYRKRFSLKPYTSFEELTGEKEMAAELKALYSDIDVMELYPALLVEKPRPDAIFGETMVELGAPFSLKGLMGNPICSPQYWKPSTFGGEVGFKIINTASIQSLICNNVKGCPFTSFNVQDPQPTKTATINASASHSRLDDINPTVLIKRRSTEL
Briefly: COX-2 activity and COX-2 levels in MLE cells. It is filed as cell-based, murine. As to conditions: 16 h.

The subject of another data set is LOX-1. In words: Purified enzyme activity assay, LOX-1. As to conditions: 10 µM, purified protein.
Data set [5] addresses T2, COX-2 (Homo sapiens, UniProt P35354).
T2 sequence (P35354 18-604): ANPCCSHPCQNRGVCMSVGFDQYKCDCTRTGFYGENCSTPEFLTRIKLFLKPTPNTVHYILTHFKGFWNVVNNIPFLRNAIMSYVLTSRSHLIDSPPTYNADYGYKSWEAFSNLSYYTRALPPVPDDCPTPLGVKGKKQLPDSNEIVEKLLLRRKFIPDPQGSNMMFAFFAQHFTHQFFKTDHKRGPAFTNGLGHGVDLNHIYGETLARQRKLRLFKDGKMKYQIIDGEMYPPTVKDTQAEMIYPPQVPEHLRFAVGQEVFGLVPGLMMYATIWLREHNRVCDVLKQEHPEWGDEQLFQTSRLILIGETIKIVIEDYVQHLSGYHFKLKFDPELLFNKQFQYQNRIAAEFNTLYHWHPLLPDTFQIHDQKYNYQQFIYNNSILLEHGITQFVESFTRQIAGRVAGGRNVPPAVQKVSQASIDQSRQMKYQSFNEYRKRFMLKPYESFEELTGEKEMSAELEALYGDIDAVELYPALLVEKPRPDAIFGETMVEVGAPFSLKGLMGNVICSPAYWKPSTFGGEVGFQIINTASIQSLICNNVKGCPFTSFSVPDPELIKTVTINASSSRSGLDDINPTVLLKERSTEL
Briefly: Purified enzyme activity assay, COX-2. The note with it: 10 µM, purified protein.

Another data set addresses SCF^Fbxo3 (Homo sapiens, UniProt Q9UK99). In words: In vitro ubiquitin conjugation assay of Fbxl2. It is filed as biochemical.
The subject of another data set is LPS-treated PBMC. Briefly: Cytokine array of LPS-treated PBMC. It is filed as cell-based, human. As to conditions: 10 µg/ml, LPS 2 µg/ml, 16 h.
Data set [6] relates to carrageenan-treated C57BL6 mice. In words: Carrageenan paw edema model. Format: in vivo, mouse. As to conditions: 100 µg i.p. daily, 48 h, versus vehicle.
The nature of data set [7]: Observation of treated animals across the inflammation models. It is filed as in vivo, mouse. The note with it: parenteral, oral, topical application.
A further data set addresses COX-1 (Homo sapiens, UniProt P23219). Briefly: Purified enzyme activity assay, COX-1. The note with it: 10 µM, purified protein.
Data set [8] concerns the target T3, Fbxo3 (Homo sapiens, UniProt Q9UK99).
T3 sequence (Q9UK99 1-471): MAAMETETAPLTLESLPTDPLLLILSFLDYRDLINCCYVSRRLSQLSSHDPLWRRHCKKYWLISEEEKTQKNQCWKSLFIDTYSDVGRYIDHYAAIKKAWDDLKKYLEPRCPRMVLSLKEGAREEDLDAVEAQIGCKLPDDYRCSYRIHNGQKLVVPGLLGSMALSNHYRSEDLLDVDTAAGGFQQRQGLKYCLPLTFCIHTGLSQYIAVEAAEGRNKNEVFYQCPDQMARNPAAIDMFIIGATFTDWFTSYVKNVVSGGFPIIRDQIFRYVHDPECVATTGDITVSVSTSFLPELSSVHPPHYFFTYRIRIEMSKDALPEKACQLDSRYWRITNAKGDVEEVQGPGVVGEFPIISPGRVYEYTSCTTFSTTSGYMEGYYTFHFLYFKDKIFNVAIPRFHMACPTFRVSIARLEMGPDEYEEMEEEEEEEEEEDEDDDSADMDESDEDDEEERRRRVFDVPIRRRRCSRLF
In words: Reversibility of Fbxo3 inhibition by ultrafiltration and Fbxl2 pull-down. As to conditions: 1 mg/ml, one or three rounds of ultrafiltration (3 kDa cutoff).

The test system of the next data set is bacterial growth. In words: Kirby Bauer testing of bacterial growth. As to conditions: data not shown.
In data set [9] the target is T3, Fbxo3. In words: Fbxo3/Fbxl2 protein interaction pull-down assay. It is filed as binding. As to conditions: Fbxo3 beads from Hela cell lysates, 10^−11 to 10^−4 M tested.
Data set [10] relates to C57BL6 mice fed dextran sulfate sodium (DSS). Briefly: DSS-induced colitis model. Format: in vivo, mouse. The note with it: 100 µg i.p. daily.
Data set [11] concerns C57BL6 mice challenged with H1N1 (A/PR/8/34). In words: H1N1 influenza pneumonia model. As to conditions: 30 µg/ml in drinking water. It is filed as in vivo, mouse.

From article PMC3845358 (Journal of immunology (Baltimore, Md. : 1950), 2013) come the findings set out here.

In brackets after ≈: the same amount, converted by molar mass.

Sequence of COX-1 (P23219 24-599): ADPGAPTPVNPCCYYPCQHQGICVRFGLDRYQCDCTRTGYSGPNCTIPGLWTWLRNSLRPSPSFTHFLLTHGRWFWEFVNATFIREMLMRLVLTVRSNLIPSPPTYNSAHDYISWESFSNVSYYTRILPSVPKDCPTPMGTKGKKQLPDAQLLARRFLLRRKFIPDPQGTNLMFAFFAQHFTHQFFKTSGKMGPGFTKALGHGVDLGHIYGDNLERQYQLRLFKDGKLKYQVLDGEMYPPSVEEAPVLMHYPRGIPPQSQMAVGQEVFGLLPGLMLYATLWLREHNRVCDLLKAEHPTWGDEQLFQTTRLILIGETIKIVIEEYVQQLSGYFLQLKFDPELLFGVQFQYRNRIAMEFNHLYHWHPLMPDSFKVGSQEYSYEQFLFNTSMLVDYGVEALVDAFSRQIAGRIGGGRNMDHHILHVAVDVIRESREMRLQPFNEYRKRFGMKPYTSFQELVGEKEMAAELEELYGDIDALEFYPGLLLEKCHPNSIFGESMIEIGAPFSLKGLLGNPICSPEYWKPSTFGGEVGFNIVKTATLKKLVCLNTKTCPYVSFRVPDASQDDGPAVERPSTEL
Sequence of SCF^Fbxo3 (Q13616 whole entry partner, one chain of several): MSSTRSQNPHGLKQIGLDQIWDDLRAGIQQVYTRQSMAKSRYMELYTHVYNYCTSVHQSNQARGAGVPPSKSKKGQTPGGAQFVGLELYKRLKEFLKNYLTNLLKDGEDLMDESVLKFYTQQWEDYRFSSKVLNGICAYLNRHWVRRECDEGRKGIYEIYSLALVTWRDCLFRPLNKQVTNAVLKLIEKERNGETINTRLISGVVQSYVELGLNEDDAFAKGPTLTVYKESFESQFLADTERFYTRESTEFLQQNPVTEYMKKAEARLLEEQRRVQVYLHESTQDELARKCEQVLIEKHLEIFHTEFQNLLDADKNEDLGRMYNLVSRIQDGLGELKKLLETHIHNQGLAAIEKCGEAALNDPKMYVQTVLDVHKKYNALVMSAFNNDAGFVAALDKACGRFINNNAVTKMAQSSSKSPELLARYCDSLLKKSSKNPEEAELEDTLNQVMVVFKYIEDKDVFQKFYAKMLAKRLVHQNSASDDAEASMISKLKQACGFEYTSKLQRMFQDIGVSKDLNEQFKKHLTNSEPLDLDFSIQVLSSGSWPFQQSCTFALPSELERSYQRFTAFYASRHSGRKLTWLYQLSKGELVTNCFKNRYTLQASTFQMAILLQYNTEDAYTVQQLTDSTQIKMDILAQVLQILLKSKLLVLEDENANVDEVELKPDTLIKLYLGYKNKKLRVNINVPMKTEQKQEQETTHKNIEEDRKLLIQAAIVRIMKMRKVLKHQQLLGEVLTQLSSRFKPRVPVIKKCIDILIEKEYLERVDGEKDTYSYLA
Sequence of SCF^Fbxo3 (P63208 whole entry partner, one chain of several): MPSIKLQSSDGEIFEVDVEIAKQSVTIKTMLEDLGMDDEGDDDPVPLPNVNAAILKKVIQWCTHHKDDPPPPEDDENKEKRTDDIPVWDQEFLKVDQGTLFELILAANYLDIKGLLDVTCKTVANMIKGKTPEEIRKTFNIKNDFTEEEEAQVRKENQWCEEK
Sequence of SCF^Fbxo3 (P62877 whole entry partner, one chain of several): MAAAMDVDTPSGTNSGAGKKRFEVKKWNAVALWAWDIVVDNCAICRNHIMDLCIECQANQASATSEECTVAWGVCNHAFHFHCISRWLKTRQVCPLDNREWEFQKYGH

`c1ccc(CNCCNCc2ccccc2)cc1` [benzathine, reference compound]: the “IC50 for IL-1β” value in data set [1] (LPS 2 µg/ml, ELISA) was 25 µg/mL.
As for `c1ccc(-c2ccc(CNCCNCc3ccc(-c4ccccn4)cc3)cc2)nc1` [BC-1215], the IC50 in [1] (Homo sapiens, read-out: IC50 for IL-1β) came to 0.9 µg/mL (≈ 2.28 µM). Also, in [2], the ear thickness entry is recorded as “significantly reduced” and the “ear weight (punch biopsy)” value is on record as “significantly reduced”. Also, the “TNFα-induced TRAF2/TRAF3 up-regulation and p38, p-IKK activation” value in data set [3] (MLE cells co-treated with TNFα 10 ng/ml, 6 h) is “suppress such effects in a dose-dependent manner”. The “levels of Fbxl2 substrates cyclin D2, cyclin D3 and CCT” value in data set [3] (MLE cells, 16 h, immunoblotting) was “reduced”. In addition, in data set [3] (cells, range of concentrations, compared to benzathine control), the “immunoreactive Fbxl2 and TRAF protein levels” value was “increased immunoreactive Fbxl2 levels and reduced TRAF proteins”. Besides, the “TRAF steady-state mRNA levels” value in the data set with TRAF 1–6 in MLE cells is listed as “without altering TRAF steady-state mRNA levels”. The “COX-2 activity in cells” value on COX-2 [4] (10 µg/ml, positive control DuP-697) is “did not alter COX-2 activity”. The “immunoreactive COX-2 levels” value on COX-2 [4] (different concentrations, immunoblotting) is “did not alter immunoreactive COX-2 levels”. For the same compound, in the data set with LOX-1, the “inhibition of LOX-1 enzymatic activity” value is reported as “does not cause significant inhibitory effects”. Moreover, the “inhibition of COX-2 enzymatic activity” value against COX-2 [5] was “does not cause significant inhibitory effects”. The compound also had an IC50 at SCF^Fbxo3 of 100 nM. In addition, the “release of Th1 panel cytokines” value in the data set on LPS-treated PBMC is “remarkably suppressed the majority of the Th1 panel cytokines”. Moreover, in data set [6], the “paw edema (volume)” value is “significantly reduce” and the paw thickness entry is recorded as “significantly reduce”. In addition, the “overt signs of distress in treated animals” value in data set [7] is “not observed to exhibit overt signs of distress”. Moreover, on COX-1, the “inhibition of COX-1 enzymatic activity” value was “does not cause significant inhibitory effects”. Further, the “reversibility of Fbxo3 inhibition” value at Fbxo3 [8] is “reversible”. The “inhibition of bacterial growth” value in the data set with bacterial growth was “modest inhibition of bacterial growth”. Also, at Fbxo3 [9], the “concentration of maximal inhibitory binding (Fbxl2 pull-down by Fbxo3 beads)” value is 10^−7 M. In addition, the colon length entry in data set [10] (3.5% DSS five days, compared to control) is listed as “no significant decrease in colon length”. For the same compound, the “TRAF protein levels in colon tissue” value in data set [10] (immunoblotting) was “significant reduction of immunoreactive TRAF2 and TRAF4 content”. In data set [10] (versus vehicle), the “IL1β level in colonic tissue” value is given as “large reduction”; the “TNFα level in colonic tissue” value was “large reduction”; the “colon histology (H&E and Alcian staining)” value is “significant restoration of colonic crypts with reappearance of goblet cells”. In addition, in data set [11], the lavage cell counts entry is reported as “remarkably decreased” and the lavage protein concentration entry is “remarkably decreased”. Also, in data set [11] (day 5, FlexiVent), the lung compliance entry was “increased compliance” and the lung elastance entry is “reduced elastance”. The “pulmonary edema, hemorrhage and alveolar inflammation” value in data set [11] (gross images and H&E) is “lessened severity”. For the same compound, in data set [11] (up to 9 d, versus diluent), the survival result is “significantly increased survival”.
